This is an account of results in patent US8969343B2, “Histone demethylase inhibitors” (priority 2012, dated 2015).

For this assay, the target named is T1, JMJD2C (Homo sapiens, UniProt Q9H3R0).
T1 sequence (Q9H3R0 2-372): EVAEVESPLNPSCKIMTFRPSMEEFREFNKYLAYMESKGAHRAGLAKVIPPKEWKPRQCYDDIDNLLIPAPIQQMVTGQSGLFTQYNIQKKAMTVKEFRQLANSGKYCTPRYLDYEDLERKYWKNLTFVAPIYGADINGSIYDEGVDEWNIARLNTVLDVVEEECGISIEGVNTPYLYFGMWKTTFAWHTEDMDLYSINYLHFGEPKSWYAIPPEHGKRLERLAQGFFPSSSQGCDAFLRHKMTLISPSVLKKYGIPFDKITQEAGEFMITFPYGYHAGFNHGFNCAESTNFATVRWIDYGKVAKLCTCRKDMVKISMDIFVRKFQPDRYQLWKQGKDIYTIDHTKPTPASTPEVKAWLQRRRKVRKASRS
The experiment in a line: JMJD2C in vitro enzyme inhibition assay (TR-FRET). The note with it: 0.3 nM JMJD2C, 300 nM H3K9me3-biotin peptide, 2 μM alpha-ketoglutaric acid. The assay is classed as biochemical. How it is done:
This assay determines the ability of a test compound to inhibit Jarid1A, Jarid1B, and JMJD2C demethylase activity.
Reaction product was determined quantitatively by TR-FRET after the addition of detection reagent Phycolink Streptavidin-allophycocyanin (Prozyme) and Europium-anti-di-methylated histone H3 lysine 9 (H3K9me2) antibody (PerkinElmer) in the presence of 5 mM EDTA in LANCE detection buffer (PerkinElmer) at a final concentration of 50 nM and 1 nM, respectively.
The assay reaction was initiated by the following: 2 μl of the mixture of 900 nM H3K9me3-biotin labeled peptide and 6 μM alpha-ketoglutaric acid with 2 μl of 11-point serial diluted inhibitor in 3% DMSO were added to each well of the plate, followed by the addition of 2 μl of 0.9 nM JMJD2C to initiate the reaction. The reaction mixture was incubated at room temperature for 30 minutes, and terminated by the addition of 6 μl of 5 mM EDTA in LANCE detection buffer containing 100 nM Phycolink Streptavidin-allophycocyanin and 2 nM Europium-anti-H3K9me2 antibody.
On to `O=C(O)c1ccncc1Nc1nn(CCC(F)(F)F)c2ccc(Cl)cc12` [Example 35, 3-{[5-chloro-1-(3,3,3-trifluoropropyl)-1H-indazol-3-yl]amino}pyridine-4-carboxylic acid], for which the half-inhibitory concentration (IC50) was in the range of 100 to 1000 nM.

`CCn1nc(Nc2cnccc2C(=O)O)c2cc(C)ccc21` [Example 36, 3-[(1-ethyl-5-methyl-1H-indazol-3-yl)amino]pyridine-4-carboxylic acid]: the IC50 fell in the range of 100 to 1000 nM.

With `O=C(O)c1ccncc1Nc1nn(CCc2ccccc2)c2ccc(F)cc12` [Example 19, 3-{[5-fluoro-1-(2-phenethyl)-1H-indazol-3-yl]amino}pyridine-4-carboxylic acid], the IC50 lay within 100 to 1000 nM.

For the molecule `Cn1cc(Nc2cnccc2C(=O)O)c2cccnc21` [Example 52, 3-[(1-methyl-1H-pyrrolo[2,3-b]pyridine-3-yl)amino]pyridine-4-carboxylic acid], the IC50 lay in the range of 100 to 1000 nM.

As to `O=C(O)c1ccncc1Nc1nn(C2CCOC2)c2ccc(Cl)cc12` (stereo not shown) [Example 69, 3-{[5-chloro-1-(tetrahydrofuran-3-yl)-1H-indazol-3-yl]amino}pyridine-4-carboxylic acid], the IC50 fell in the range of 100 to 1000 nM.

On to `COCCn1nc(Nc2cnccc2C(=O)O)c2ccccc21` [Example 10, 3-{[1-(2-methoxyethyl)-1H-indazol-3-yl]amino}pyridine-4-carboxylic acid], for which the IC50 lay within 100 to 1000 nM.

In turn, `N#CNC(=O)c1ccncc1Nc1nn(CCN2CCCC2)c2ccc(Cl)cc12` [Example 79, N-cyano-3-({5-chloro-1-[2-(pyrrolidin-1-yl)ethyl]-1H-indazol-3-yl}amino)pyridine-4-carboxamide] showed an IC50 of 100 to 1000 nM.

With `O=C(O)c1ccncc1Nc1cn(CCC(F)(F)F)c2ccc(Cl)cc12` [Example 59, 3-{[5-chloro-1-(3,3,3-trifluoropropyl)-1H-indol-3-yl]amino}pyridine-4-carboxylic acid], the IC50 was 100 to 1000 nM.

In turn, `O=C(O)c1ccncc1Nc1nn(CCC(F)(F)F)c2ccc(F)cc12` [Example 32, 3-{[5-fluoro-1-(3,3,3-trifluoropropyl)-1H-indazol-3-yl]amino}pyridine-4-carboxylic acid] gave an IC50 of 100 to 1000 nM.

The molecule `O=C(O)c1ccncc1Nc1nn(CC2CCCC2)c2ccc(F)cc12` [Example 30, 3-{[1-(cyclopentylmethyl)-5-fluoro-1H-indazol-3-yl]amino}pyridine-4-carboxylic acid] had an IC50 of 100 to 1000 nM.

In the case of `O=C(O)c1ccncc1Nc1nn(CC2CCCO2)c2ccc(F)cc12` (stereo not shown) [Example 21, 3-{[5-fluoro-1-(tetrahydrofuran-2-ylmethyl)-1H-indazol-3-yl]amino}pyridine-4-carboxylic acid], the IC50 was 100 to 1000 nM.

`O=C(O)c1ccncc1Nc1nn(CC(F)(F)F)c2ccc(F)cc12` [Example 23, 3-{[5-fluoro-1-(2,2,2-trifluoroethyl)-1H-indazol-3-yl]amino}pyridine-4-carboxylic acid] registered an IC50 of 100 to 1000 nM.

`Cc1ccc2c(Nc3cnccc3C(=O)O)nn(C)c2c1` [Example 5, 3-[(1,6-dimethyl-1H-indazol-3-yl)amino]pyridine-4-carboxylic acid]: the IC50 was 100 to 1000 nM.

As to `N#CNC(=O)c1ccncc1Nc1nn(CCN2CCC(F)(F)CC2)c2ccc(F)cc12` [Example 74, N-cyano-3-({1-[2-(4,4-difluoropiperidin-1 yl)ethyl]-5-fluoro-1H-indazol-3-yl}amino)pyridine-4-carboxamide], the IC50 lay within 1000 to 10000 nM.

The molecule `CCCn1nc(Nc2cnccc2C(=O)O)c2cc(F)ccc21` [Example 15, 3-[(5-fluoro-1-propyl-1H-indazol-3-yl)amino]pyridine-4-carboxylic acid] returned an IC50 of 100 to 1000 nM.

`CCCn1nc(Nc2cnccc2C(=O)O)c2cc(Cl)ccc21` [Example 33, 3-[(5-chloro-1-propyl-1H-indazol-3-yl)amino]pyridine-4-carboxylic acid] displayed an IC50 of 100 to 1000 nM.

On to `CCCn1nc(Nc2cnccc2C(=O)O)c2ccccc21` [Example 9, 3-[(1-propyl-1H-indazol-3-yl)amino]pyridine-4-carboxylic acid], for which the IC50 was in the range of 100 to 1000 nM.

With `N#CNC(=O)c1ccncc1Nc1nn(CCN2CCC(F)(F)C2)c2ccc(F)cc12` [Example 72, N-cyano-3-({1-[2-(3,3-difluoropyrrolidin-1 yl)ethyl]-5-fluoro-1H-indazol-3-yl}amino)pyridine-4-carboxamide], the half-inhibitory concentration (IC50) lay in the range of 1000 to 10000 nM.

Molecule `Cn1nc(Nc2cnccc2C(=O)O)c2cc(Cl)ccc21` [Example 4] yielded an IC50 of 100 to 1000 nM.

On to `Cc1ccc2c(c1)c(Nc1cnccc1C(=O)O)nn2CC1CC1` [Example 37, 3-{[1-(cyclopropylmethyl)-5-methyl-1H-indazol-3-yl]amino}pyridine-4-carboxylic acid], for which the 50% inhibitory concentration (IC50) lay within 100 to 1000 nM.

As for `CC(C)Cn1nc(Nc2cnccc2C(=O)NC#N)c2cc(F)ccc21` [Example 75, N-cyano-3-{[5-fluoro-1-(2-methylpropyl)-1H-indazol-3-yl]amino}pyridine-4-carboxamide], the IC50 fell in the range of 1000 to 10000 nM.

For the molecule `CN(C)CCCCn1nc(Nc2cnccc2C(=O)NC#N)c2cc(F)ccc21` [Example 76, N-cyano-3-({1-[4-(dimethylamino)butyl]-5-fluoro-1H-indazol-3-yl}amino)pyridine-4-carboxamide], the IC50 lay within 100 to 1000 nM.

`N#CNC(=O)c1ccncc1Nc1nn([C@H]2CCOC2)c2ccc(F)cc12` [Example 70, N-cyano-3-({5-fluoro-1-[(3S)-tetrahydrofuran-3-yl]-1H-indazol-3-yl}amino)pyridine-4-carboxamide] registered an IC50 of 1000 to 10000 nM.

Turning to `O=C(O)c1ccncc1Nc1nn(CCC2CC2)c2ccc(F)cc12` [Example 31, 3-{[1-(cyclopropylethyl)-5-fluoro-1H-indazol-3-yl]amino}pyridine-4-carboxylic acid], the IC50 lay within 100 to 1000 nM.

In turn, `CCCCCn1nc(Nc2cnccc2C(=O)O)c2cc(F)ccc21` [Example 18, 3-[(5-fluoro-1-pentyl-1H-indazol-3-yl)amino]pyridine-4-carboxylic acid] returned an IC50 of 100 to 1000 nM.

As for `CC(C)Cn1nc(Nc2cnccc2C(=O)O)c2cc(F)ccc21` [Example 25, 3-{[5-fluoro-1-(2-methylpropyl)-1H-indazol-3-yl]amino}pyridine-4-carboxylic acid], the IC50 is 100 to 1000 nM.

Regarding `O=C(O)c1ccncc1Nc1nn(C2CCCC2)c2ccc(F)cc12` [Example 29, 3-[(1-cyclopentyl-5-fluoro-1H-indazol-3-yl)amino]pyridine-4-carboxylic acid], the IC50 fell in the range of 100 to 1000 nM.

As for `O=C(O)c1ccncc1Nc1nn(CC2CCC2)c2ccc(F)cc12` [Example 28, 3-{[1-(cyclobutylmethyl)-5-fluoro-1H-indazol-3-yl]amino}pyridine-4-carboxylic acid], the concentration for half-maximal inhibition (IC50) was 100 to 1000 nM.

Molecule `CCC(C)n1nc(Nc2cnccc2C(=O)O)c2cc(F)ccc21` (stereo not shown) [Example 26, 3-{[5-fluoro-1-(butan-2-yl)-1H-indazol-3-yl]amino}pyridine-4-carboxylic acid] showed an IC50 of 100 to 1000 nM.

Molecule `O=C(O)c1ccncc1Nc1nn(CC2CC2)c2ccc(F)cc12` [Example 16, 3-{[1-(cyclopropylmethyl)-5-fluoro-1H-indazol-3-yl]amino}pyridine-4-carboxylic acid] displayed an IC50 of 100 to 1000 nM.

Molecule `CCCn1cc(Nc2cnccc2C(=O)O)c2cc(F)ccc21` [Example 57, 3-[(5-fluoro-1-propyl-1H-indol-3-yl)amino]pyridine-4-carboxylic acid] registered an IC50 of 100 to 1000 nM.

Molecule `Cc1ccc2c(c1)c(Nc1cnccc1C(=O)O)nn2CCC(F)(F)F` [Example 39, 3-{[5-methyl-1-(3,3,3-trifluoropropyl)-1H-indazol-3-yl]amino}pyridine-4-carboxylic acid] returned a 50% inhibitory concentration (IC50) of 100 to 1000 nM.

The molecule `COc1ccc2c(Nc3cnccc3C(=O)O)nn(C)c2c1` [Example 8, 3-[(6-methoxy-1-methyl-1H-indazol-3-yl)amino]pyridine-4-carboxylic acid] yielded an IC50 of 100 to 1000 nM.

The molecule `O=C(O)c1ccncc1Nc1nn(CC2CC2)c2ccc(Cl)cc12` [Example 34, 3-{[5-chloro-1-(cyclopropylmethyl)-1H-indazol-3-yl]amino}pyridine-4-carboxylic acid] came in with an IC50 of 100 to 1000 nM.

In turn, `O=C(O)c1ccncc1Nc1nn(C2CCOCC2)c2ccc(F)cc12` [Example 62, 3-{[5-fluoro-1-(tetrahydro-2H-pyran-4-yl)-1H-indazol-3-yl]amino}pyridine-4-carboxylic acid] yielded an IC50 of 100 to 1000 nM.

For the molecule `O=C(O)c1ccncc1Nc1nn(C2CCCOC2)c2ccc(F)cc12` (stereo not shown) [Example 63, 3-{[5-fluoro-1-(tetrahydro-2H-pyran-3-yl)-1H-indazol-3-yl]amino}pyridine-4-carboxylic acid], the 50% inhibitory concentration (IC50) was 100 to 1000 nM.

In turn, `CCCn1nc(Nc2cnccc2C(=O)O)c2cc(C)ccc21` [Example 38, 3-[(5-methyl-1-propyl-1H-indazol-3-yl)amino]pyridine-4-carboxylic acid] yielded a concentration for half-maximal inhibition (IC50) of 100 to 1000 nM.
